Test results reported in article PMC3042124 (Organic & biomolecular chemistry, 2010).

Assays:
Format in all cases: biochemical
[1] = molecular target: β5 subunit of the constitutive proteasome (Homo sapiens, UniProt P20618+P28074)
[2] = molecular target: β2 subunit of the constitutive proteasome (Homo sapiens, UniProt P49720+Q99436)
[3] = molecular target: β1 subunit of the constitutive proteasome (Homo sapiens, UniProt P28072+Q99436)

| SMILES | IC50 [1] | IC50 [2] | IC50 [3] |
| --- | --- | --- | --- |
| CCCC[C@H](NC(=O)[C@@H]1CCCN1C(=O)[C@H](C)NC(C)=O)C(=O)N[C@H](/C=C/S(C)(=O)=O)CC(C)C [Ib, Ac-Ala-Pro-NLe-Leu-methyl-vinylsulfone] | > 100000 nM | > 100 µM | 7.8 ± 0.86 µM |
| COc1ccc(C[C@H](NC(=O)Cc2ccc3ccccc3c2)C(=O)N[C@@H](Cc2ccccc2)C(=O)N[C@H](/C=C/S(=O)(=O)c2ccc(O)cc2)CC(C)C)cc1 [IIa, (Tyr(Me)-Phe-Leu-4-hydroxyphenyl-vinylsulfone)-2-(naphthalen-2-yl)-acetamide] | 70 ± 10 nM | 78 ± 23 µM | 32 ± 16 µM |
| COc1ccc(C[C@H](NC(=O)Cc2ccc3ccccc3c2)C(=O)N[C@@H](Cc2ccccc2)C(=O)N[C@H](/C=C/S(C)(=O)=O)CC(C)C)cc1 [IIb, (Tyr(Me)-Phe-Leu-methyl-vinylsulfone)-2-(naphthalen-2-yl)-acetamide] | 110 ± 20 nM | > 100 µM | > 100 µM |
| CCCC[C@H](NC(=O)[C@@H]1CCCN1C(=O)[C@H](C)NC(C)=O)C(=O)N[C@H](/C=C/S(=O)(=O)c1ccc(O)cc1)CC(C)C [Ia, Ac-Ala-Pro-Nle-Leu-4-hydroxyphenyl-vinylsulfone] | > 100000 nM | > 100 µM | 4 ± 0.67 µM |
